What is called MIC is the smallest concentration in the dilution series that meets the test's criterion for growth inhibition.

MIC data for 28 compounds are collected here from patent US8524738B2, “Quinolinones and quinoxalinones as antibacterial composition” (Toyama Chemical Co., Ltd., priority 2005, dated 2013).

SMILES strings stand for the structures. Converted amounts (≈) assume the structure as drawn. Where a name gives a salt, the structure may show the parent alone. Read-outs that look alike come from different tables or passages of the source.

For this assay, the system named is Staphylococcus aureus (S. aureus FDA209P). As to the kind of experiment: Sensitivity Test 1: antibacterial activity (MIC) by micro-dilution method. The format is cell-based. The method, then: Test compounds were initially dissolved in dimethylsulfoxide. Antibacterial activities (MICs) of the same compounds were determined by the micro-dilution method as recommended by the Japanese Society of Chemotherapy.
Staphylococcus aureus (S. aureus FDA209P) was used as the test organism. The bacterial cells were grown overnight at 35° C. on Mueller-Hinton agar (MHA) plates. The bacterial cells were then suspended in sterile saline and adjusted to the turbidity of a 0.5 McFarland standard. The inoculum was prepared by 10-fold dilution of this suspension. Approximately 0.005 mL aliquots of the inoculum prepared above were subsequently inoculated into Cation-adjusted Mueller-Hinton broth (CAMHB, 100 μL/well) including the test compounds for overnight incubation at 35° C.
Background: Broth dilution looks for growth in wells or tubes with falling amounts of substance.

[1] abbreviates: S. aureus FDA209P, CAMHB, overnight incubation at 35° C., lowest concentration with virtually no growth, read-out: MIC.

Consider `CNC(=O)C1CN(CCn2c(=O)ccc3ccc(OC)cc32)CCC1NCc1ccc2c(c1)OCCO2` (single isomer, unassigned) [Example 176, 4-((2,3-dihydro-1,4-benzodioxin-6-ylmethyl)amino)-1-(2-(7-methoxy-2-oxoquinolin-1(2H)-yl)ethyl)-N-methylpiperidine-3-carboxamide], for which the minimal inhibitory concentration (MIC) under setting [1] was found to be 0.0625 µg/mL (≈ 0.123 µM).

For `COc1ccc2c(C)cc(=O)n(CCN3CCC(NCC(=O)Nc4ccccn4)CC3)c2c1` [Example 18, N-(pyridin-2-yl)-N^2-(1-(2-(7-methoxy-4-methyl-2-oxoquinolin-1(2H)-yl)ethyl)piperidin-4-yl)glycinamide], the MIC under setting [1] stood at 0.25 µg/mL (≈ 0.556 µM). `O=c1cnc2ccccc2n1CCN1CCC(NCc2ccc3c(c2)OCCO3)CC1` [Example 28, 1-(2-(4-((2,3-dihydro-1,4-benzodioxin-6-ylmethyl)amino)piperidin-1-yl)ethyl)quinoxalin-2(1H)-one hydrochloride] came in with a minimum inhibitory concentration (MIC) (FDA209P) of 0.0625 µg/mL. On to `COc1ccc2ccc(=O)n(CCN3CCC(NC(=O)c4ccc5c(c4)OCCO5)CC3)c2c1` [Example 36, N-(1-(2-(7-methoxy-2-oxoquinolin-1(2H)-yl)ethyl)piperidin-4-yl)-2,3-dihydro-1,4-benzodioxin-6-carboxamide], for which, under setting [1], the MIC is 0.125 µg/mL (≈ 0.27 µM). The same measure, in the same setting: as for `COc1ccc2c(C)cc(=O)n(CCN3CCC(NCCCc4ccccc4)CC3)c2c1` [Example 39, 7-methoxy-4-methyl-1-(2-(4-((3-phenylpropyl)amino)piperidin-1-yl)ethyl)quinolin-2(1H)-one], the figure is 0.0625 µg/mL (≈ 0.144 µM); as for `COc1ccc2ccc(=O)n(CCCC3(C(=O)O)CCN(CCSc4cccc(F)c4)CC3)c2c1` [Example 51, 1-(2-((3-fluorophenyl)thio)ethyl)-4-(3-(7-methoxy-2-oxoquinolin-1(2H)-yl)propyl)piperidine-4-carboxylic acid], 0.125 µg/mL (≈ 0.251 µM).

In the case of `COc1ccc2c(C)cc(=O)n(CCN3CCN(CCc4ccc5c(c4)OCCO5)C(C(=O)O)C3)c2c1` (stereo not shown) [Example 53, 1-(2-(2,3-dihydro-1,4-benzodioxin-6-yl)ethyl)-4-(2-(7-methoxy-4-methyl-2-oxoquinolin-1(2H)-yl)ethyl)piperazine-2-carboxylic acid], the minimum inhibitory concentration (MIC) under setting [1] came to 1 µg/mL (≈ 1.97 µM). The compound `COc1ccc2c(C)cc(=O)n(CCN3CCC(NCCSc4cccs4)CC3)c2c1` [Example 57, 7-methoxy-4-methyl-1-(2-(4-((2-(2-thienylthio)ethyl)amino)piperidin-1-yl)ethyl)quinolin-2(1H)one hydrochloride] displayed an MIC (FDA209P) of 0.0625 µg/mL. With `CNC(=O)c1cc(=O)n(CCN2CCC(NCc3cc4c(cn3)OCCO4)CC2)c2cc(OC)ccc12` [Example 66, 1-(2-(4-((2,3-dihydro(1,4)dioxino(2,3-c)pyridin-7-ylmethyl)amino)piperidin-1-yl)ethyl)-7-methoxy-N-methyl-2-oxo-1,2-dihydroquinoline-4-carboxamide], the MIC under setting [1] came to 0.25 µg/mL (≈ 0.493 µM). Turning to `COc1ccc2c(C(N)=O)cc(=O)n(CCN3CCC(NCc4ccc5c(c4)OCCO5)CC3)c2c1` [Example 70, 1-(2-(4-((2,3-dihydro-1,4-benzodioxin-6-ylmethyl)amino)piperidin-1-yl)ethyl)-7-methoxy-2-oxo-1,2-dihydroquinoline-4-carboxamide], the MIC under setting [1] came to 0.25 µg/mL (≈ 0.508 µM). In the case of `CCNC(=O)c1cc(=O)n(CCN2CCC(NCc3ccc4c(c3)OCCO4)CC2)c2cc(OC)ccc12` [Example 77, 1-(2-(4-((2,3-dihydro-1,4-benzodioxin-6-ylmethyl)amino)piperidin-1-yl)ethyl)N-ethyl-7-methoxy-2-oxo-1,2-dihydroquinoline-4-carboxamide], the minimum inhibitory concentration (MIC) under setting [1] was determined as 0.125 µg/mL (≈ 0.24 µM). As to `COc1ccc2c(C(=O)NC3CC3)cc(=O)n(CCN3CCC(NCc4ccc5c(c4)OCCO5)CC3)c2c1` [Example 79, N-cyclopropyl-1-(2-(4-((2,3-dihydro-1,4-benzodioxin-6-ylmethyl)amino)piperidin-1-yl)ethyl)-7-methoxy-2-oxo-1,2-dihydroquinoline-4-carboxamide], the MIC under setting [1] came out at 0.0625 µg/mL (≈ 0.117 µM).

As for `COc1ccc2c(C(=O)Nc3ccccc3)cc(=O)n(CCN3CCC(NCc4ccc5c(c4)OCCO5)CC3)c2c1` [Example 83, 1-(2-(4-((2,3-dihydro-1,4-benzodioxin-6-ylmethyl)amino)piperidin-1-yl)ethyl)-7-methoxy-2-oxo-N-phenyl-1,2-dihydroquinoline-4-carboxamide], under setting [1], the MIC amounted to 0.0625 µg/mL (≈ 0.11 µM). On to `Nc1cc(=O)n(CCN2CCC(NCc3ccc4c(c3)OCCO4)CC2)c2ccccc12` [Example 97, 4-amino-1-(2-(4-((2,3-dihydro-1,4-benzodioxin-6-ylmethyl)amino)piperidin-1-yl)ethyl)-quinolin-2(1H)-one hydrochloride], for which, under “FDA209P”, the MIC came out at 0.125 µg/mL. On the same count and under the same terms, the result for `CCOc1ccc2c(C)cc(=O)n(CCN3CCC(NCc4ccc5c(c4)OCCO5)CC3)c2c1` [Example 104, 1-(2-(4-((2,3-dihydro-1,4-benzodioxin-6-ylmethyl)amino)piperidin-1-yl)ethyl)-7-ethoxy-4-methylquinolin-2(1H)-one hydrochloride] reads 0.0625 µg/mL.

In turn, `Cc1cc(=O)n(CCN2CCC(NCc3ccc4c(c3)OCCO4)CC2)c2cc(Cl)ccc12` [Example 107, 7-chloro-1-(2-(4-((2,3-dihydro-1,4-benzodioxin-6-ylmethyl)amino)piperidin-1-yl)ethyl)-4-methylquinolin-2(1H)-one hydrochloride] registered an MIC (FDA209P) of 0.0313 µg/mL. `Cc1cc(=O)n(CCN2CCC(NCc3ccc4c(c3)OCCO4)CC2)c2cc(F)ccc12` [Example 109, 1-(2-(4-((2,3-dihydro-1,4-benzodioxin-6-ylmethyl)amino)piperidin-1-yl)ethyl)-7-fluoro-4-methylquinolin-2(1H)-one hydrochloride] had a minimum inhibitory concentration (MIC) (FDA209P) of 0.125 µg/mL.

As to `Cc1cc(=O)n(CCN2CCC(NCc3ccc4c(c3)OCCO4)CC2)c2cc(-n3ccnc3)ccc12` [Example 125, 1-(2-(4-((2,3-dihydro-1,4-benzodioxin-6-ylmethyl)amino)piperidin-1-yl)ethyl)-7-(1H-imidazol-1-yl)-4-methylquinolin-2(1H)-one hydrochloride], the MIC (FDA209P) is 0.0313 µg/mL. With `Cc1cc(=O)n(CCN2CCC(NCc3ccc4c(c3)OCCO4)CC2)c2cc(OC(F)F)ccc12` [Example 127, 7-(difluoromethoxy)-1-(2-(4-((2,3-dihydro-1,4-benzodioxin-6-ylmethyl)amino)piperidin-1-yl)ethyl)-4-methylquinolin-2(1H)-one hydrochloride], the MIC (FDA209P) came to 0.0625 µg/mL.

Where the note is “FDA209P”, `Cc1cc(=O)n(CCN2CCC(NCc3ccc4c(c3)OCCO4)CC2)c2cc(OC3CC3)ccc12` [Example 129, 7-cyclopropoxy-1-(2-(4-((2,3-dihydro-1,4-benzodioxin-6-ylmethyl)amino)piperidin-1-yl)ethyl)-4-methylquinolin-2(1H)-one hydrochloride] came in with a minimum inhibitory concentration (MIC) of 0.0625 µg/mL.

Consider `COc1ccc2c(C)cc(=O)n(CCC3(C(N)=O)CCC(NCc4ccc5c(c4)OCCO5)CC3)c2c1` (stereo not shown) [Example 155, 4-((2,3-dihydro-1,4-benzodioxin-6-ylmethyl)amino)-1-(2-(7-methoxy-4-methyl-2-oxoquinolin-1(2H)-yl)ethyl)cyclohexanecarboxamide], for which, under setting [1], the minimal inhibitory concentration (MIC) was 0.125 µg/mL (≈ 0.247 µM). On the same count and under the same terms, the result for `CNC(=O)c1cc(=O)n(CCN2CCC(NCc3ccc(C(F)(F)F)c(F)c3)CC2)c2cc(OC)ccc12` [Example 182, 1-(2-(4-((3-fluoro-4-(trifluoromethyl)benzyl)amino)piperidin-1-yl)ethyl)-7-methoxy-N-methyl-2-oxo-1,2-dihydroquinoline-4-carboxamide] reads 0.0625 µg/mL (≈ 0.117 µM). In turn, `CNC(=O)c1cc(OC)cc2c1ccc(=O)n2CCN1CCC(NCc2ccc3c(c2)OCCO3)CC1` [Example 186, 1-(2-(4-((2,3-dihydro-1,4-benzodioxin-6-ylmethyl)amino)piperidin-1-yl)ethyl)-7-methoxy-N-methyl-2-oxo-1,2-dihydroquinoline-5-carboxamide hydrochloride] displayed an MIC (FDA209P) of 0.25 µg/mL.

`COc1cc(CO)c2ccc(=O)n(CCN3CCC(NCc4ccc5c(c4)OCCO5)CC3)c2c1` [Example 189, 1-(2-(4-((2,3-dihydro-1,4-benzodioxin-6-ylmethyl)amino)piperidin-1-yl)ethyl)-5-hydroxymethyl-7-methoxyquinolin-2(1H)-one hydrochloride] registered an MIC (FDA209P) of 0.0625 µg/mL. For the setting “FDA209P”, `COc1cccc2ccc(=O)n(CCN3CCC(NCc4ccc5c(c4)OCCO5)CC3)c12` [Example 244, 1-(2-(4-((2,3-dihydro-1,4-benzodioxin-6-ylmethyl)amino)piperidin-1-yl)ethyl)-8-methoxyquinolin-2(1H)-one hydrochloride] displayed an MIC of 0.0625 µg/mL. Under “FDA209P”, `CCc1ccc(CNC2CCN(CCn3c(=O)cc(C(=O)NC)c4ccc(OC)cc43)CC2)cc1` [Example 339, 1-(2-(4-(4-ethylbenzylamino)piperidin-1-yl)ethyl)-7-methoxy-N-methyl-2-oxo-1,2-dihydroquinoline-4-carboxamide hydrochloride] showed a minimal inhibitory concentration (MIC) of 0.0625 µg/mL. `CNC(=O)c1cc(=O)n(CCN2CCC(NCc3cc4sccc4s3)CC2)c2cc(OC)ccc12` [Example 342, 7-methoxy-N-methyl-2-oxo-1-(2-(4-((thieno[3,2-b]thiophen-2-yl)methylamino)piperidin-1-yl)ethyl)-1,2-dihydroquinoline-4-carboxamide hydrochloride]: where the note is “FDA209P”, 0.0313 µg/mL was the least that counted as inhibitory (MIC). Still for that read-out and setting: the result for `CNC(=O)c1cc(=O)n(CCN2CCC(NCc3cc4ccccc4s3)CC2)c2cc(OC)ccc12` [Example 343, 1-(2-(4-((benzo[b]thiophen-2-yl)methylamino)piperidin-1-yl)ethyl)-7-methoxy-N-methyl-2-oxo-1,2-dihydroquinoline-4-carboxamide hydrochloride] reads 0.125 µg/mL.
